Laboratory results as given in patent US20220180963A1, “METHOD FOR SELECTING PATIENT SPECIFIC THERAPY” (YISSUM RESEARCH DEVELOPMENT COMPANY OF THE HEBREW …, priority 2018, published 2022).

How the values were obtained:
Format in all cases: cell-based
MDA-MB-231 cells = experiment: Survival of MDA-MB-231 cells after drug treatment (methylene blue); conditions: FIG. 14B; for killing / survival of MDA231 cells: methylene blue survival
Source text: (§1) FIG. 14A-I. Experimental validation of the approach (14A, 14D, 14G) Diagrams of signaling signatures of MDA-MB-231, MDA-MB-468 and MCF7 cells, according to SA based analysis. Schematic figures of each unbalanced process are shown. Drug predictions are indicated for each cell line, including the processes that they are predicted to target. (14B, 14E, 14H) Bar charts of survival rates in response to different treatments (as measured by methylene blue). For each cell line the combination of drugs predicted to target the complete unbalanced signaling signature was tested (marked with an asterix), as well as combinations that were predicted to only partially target the unbalanced signaling flux, each drug alone and taxol. For MDA468 a triple combination was tested as well (marked with two asterix signs, shown in the inset in FIG. 14E). […] Stain-free imaging was used to ensure equal loading. […] Bar chart inserts show quantified relative expression of the investigated protein.
To validate the approach, we analyzed a dataset comprising RPPA measurements from 10 cell lines, including breast, ovarian, and oesophageal cancer, and assigned a barcode and drug combinations to each cell line. The predictions were made such that for each cell line, at least one protein hub from every active unbalanced process will be inhibited, aiming to collapse the sample-specific altered signaling network. Three breast cancer cell lines were chosen for experimental validation: MDA-MB-231 (MD231), MDA-MB-468 (MD468), and MCF7. The two formers represent triple negative breast cancer (TNBC) against which no targeted therapy exists in clinics today. TNBC is often treated with non-specific chemotherapy, such as taxol^1. MCF7 represent luminal type A breast cancer, routinely treated with the ERα inhibitor, tamoxifen, and in some cases chemotherapy such as taxanes.

MDA-MB-468 cells = experiment: Survival of MDA-MB-468 cells after drug treatment (methylene blue); conditions: maximal killing, FIG. 14E
Source text: as §1
To validate the approach, we analyzed a dataset comprising RPPA measurements from 10 cell lines, including breast, ovarian, and oesophageal cancer, and assigned a barcode and drug combinations to each cell line. The predictions were made such that for each cell line, at least one protein hub from every active unbalanced process will be inhibited, aiming to collapse the sample-specific altered signaling network. […]

MCF7 cells = experiment: Survival of MCF7 cells after drug treatment (methylene blue); conditions: maximal killing, FIG. 14H
Description: Schematic figures of each unbalanced process are shown. […] For each cell line the combination of drugs predicted to target the complete unbalanced signaling signature was tested (marked with an asterix), as well as combinations that were predicted to only partially target the unbalanced signaling flux, each drug alone and taxol. […] Stain-free imaging was used to ensure equal loading.
Indeed, 4-OHT killed only up to 50% of the cells (FIG. 14H). […] Similar to the case in MDA468 cells, the double combination consisting of T and LY was expected to target all unbalanced processes in these cells, however since there are 4 distinct unbalanced processes that need to be targeted, addition of a third drug is apparently necessary to enhance the effect (FIG. 14G-I).

Compound | killing / survival of MDA231 cells (MDA-MB-231 cells) | cells killed (MDA-MB-468 cells) [%] | concentration at which efficacy of the treatment plateaued (MDA-MB-231 cells) [nM] | cells killed (MCF7 cells)
C#Cc1cccc(Nc2ncnc3cc(OCCOC)c(OCCOC)cc23)c1 [erlotinib] | no effect | – | – | –
CC(=O)O[C@H]1C(=O)[C@@]2(C)[C@H]([C@H](OC(=O)c3ccccc3)[C@]3(O)C[C@H](OC(=O)[C@H](O)[C@@H](NC(=O)c4ccccc4)c4ccccc4)C(C)=C1C3(C)C)[C@]1(OC(C)=O)CO[C@@H]1C[C@@H]2O [taxol] | efficiently killed | ~80 | 100 | –
4-hydroxy tamoxifen [4-OHT] | – | – | – | up to 50%
CC(=O)Nc1cccc(-n2c(=O)n(C3CC3)c(=O)c3c(Nc4ccc(I)cc4F)n(C)c(=O)c(C)c32)c1 [trametinib] | – | – | 100 | –
